# Test results published in a melting point compilation (Tetko et al.; mined from patent text by program, amines drawn as free bases though some values may be those of a salt).
row,Structure (SMILES),melting point [°C]
1,O=C(O)CCCCNS(=O)(=O)c1ccc(N2CCCCC2)cc1,115 to 120
2,CC(C)(C)NC(=O)N(Cc1ccccc1)CC(O)C(Cc1ccccc1)NC(=O)C(CC(N)=O)NC(=O)NCc1ccccc1 (stereo unspecified),156 to 158
3,CC(C)(C)OC(=O)c1ccc(CN(CCc2ccccc2)C(=O)OC(C)(C)C)c(N)c1,105 to 106
4,Cc1cc(C)c(-c2cc3cnc(N)nc3nc2N)c(C)c1,276 to 282
5,Nc1ncccc1CCc1ccccc1,106 to 108
6,CC1(c2cccnc2F)OC(=S)N(Nc2ccccc2)C1=O (stereo unspecified),130 to 135
7,Cc1ccc(Oc2noc(=O)n2S(=O)(=O)c2c(C)noc2C)c(C)c1,135 to 136
8,COc1ccc(/C(=C\C=C\C(=O)O)C2CC2)cc1,154 to 156
9,COC(=O)c1ccc(OCC(C)C)c([N+](=O)[O-])c1,77
10,COCCn1nc2c(N)nc3ccccc3c2c1CC1CCOCC1,189 to 190
11,COC(=O)c1cccc2nc(OC)n(Cc3ccc(-c4ccccc4-c4nnn[nH]4)cc3)c12,165 to 166
12,O=[N+]([O-])c1ccc([N+](=O)[O-])c(OCC=CCBr)c1,81 to 83
13,CCC(Oc1ccc(Cl)c(C)c1)C(=O)NCc1ccco1 (stereo unspecified),100 to 102
14,O=Cc1ccc2c(c1)S(=O)c1ccccc1CC2 (stereo unspecified),158 to 160
15,NC(C(=O)O)c1ccc(C(=O)O)cc1SCc1ccccc1 (stereo unspecified),226
16,O=C(CCCC(c1cc(F)ccc1F)S(=O)(=O)c1ccc(Cl)cc1)N1CCCC1 (stereo unspecified),125 to 126
17,CCCCCN(CCCCC)C(=O)[C@H]1Cc2c([nH]c3ccccc23)CN1,157 to 158
18,C=CCn1c(OC)n[nH]c1=O,111
19,CCOC(=O)CCc1cc(CCC(N)=O)cc(Cc2ccc(F)cc2)c1,69 to 70
20,Cc1nc(C)c(C)c(NCCNCC(O)COc2ccccc2)n1 (stereo unspecified),119 to 121
21,OC(CNC1CCc2ccccc2C1)COc1ccccc1Cl (stereo unspecified),98 to 101
22,COc1cc(C(=O)N2CCN(C(=O)OC(C)(C)C)C(C(=O)O)C2)cc(OC)c1OC (stereo unspecified),188 to 190
23,CNC(=NO)NCc1ccccc1,97 to 99
24,CC1(C)CC(O)CC(C)(C)N1OC(=NC1CCCCC1)NC1CCCCC1,157 to 161
25,C=Cc1cn(C)c2cc(-c3ccccc3Cl)c3c(c12)C(=O)NC3=O,200 to 205
26,CN(C)C(=O)Cc1cn(Cc2ccccc2)c2ccc(I)cc12,167 to 168

row,Structure (SMILES),melting point [°C]
1,CC(C)(C)C(=NO)C(C)(C)CCCCCCC(C)(C)C(=NO)C(C)(C)C,203 to 209
2,COc1cc2nc(C)c3c4cc5c(cc4ccc3c2cc1OC)OCO5,> 250
3,COc1ccc(NC(=O)N(O)C2CCCCCCC2)cc1,166 to 167
4,N#Cc1sc(Cl)nc1Cl,34 to 35
5,CCOC(=O)CC(=O)c1ccc(CCNC(C)=O)cc1,89 to 92
6,CSC(=C[N+](=O)[O-])N(C)C,60
7,O=C(O)Cc1ccc(C2CCCC(=O)C2)cc1 (stereo unspecified),96
8,CCOC(=O)c1cn(-c2cc(NC(=O)OC(C)(C)C)c(F)cc2F)c2c(C)c(F)c(F)c([N+](=O)[O-])c2c1=O,188 to 189
9,CCCc1nc2c(N)nc(C)c(C)c2n1CCCCS(=O)(=O)N(C)C,127 to 128
10,CN1C(=O)C(c2ccc(OC(F)F)cc2)(c2cccnc2)N=C1N (stereo unspecified),173 to 175
11,CCOC(=O)/C=C/c1cc(OCc2cn(-c3ccc(C(F)(F)F)cn3)nc2C(C)C)nn1C,105 to 106
12,CC(=O)NC1Cc2ccc(CCN3CCN(c4nsc5ccccc45)CC3)cc2C1(C)C (stereo unspecified),62 to 72
13,O=C(c1ccc(Cl)cc1Cl)C1(c2cccnc2)CC1,83
14,CNS(=O)(=O)c1cccc(-c2ccc3cccc(N4CCN(C)CC4)c3c2)c1,148
15,CC(=O)N1CCn2c1c(-c1ccccc1)c1ncccc1c2=O,229 to 231
16,CCn1ncc2c(C(F)(F)F)cc(=O)[nH]c21,178 to 179
17,Cc1cc(NCCO)c(N)c([N+](=O)[O-])c1,166
18,O=C(O)C1CCc2c(-c3ccc(Cl)cc3)noc2C1 (stereo unspecified),227 to 228
19,NNC(=O)c1ccc(N2CCNC2=O)cc1,> 200
20,CCCCCCCCCCCCc1c[nH]c(C(=O)OC)c1,68 to 69
21,COc1cc2ncnc(N3CCN(C(=O)Nc4ccc5[nH]ccc5c4)CC3)c2cc1OC,209 to 210
22,O=C(Nc1ccc(F)cc1F)C(=O)c1c2n(c3ccccc13)CCNCC2,184 to 186
23,COC(=O)C1=C(C)NC(C)=C(C(=O)OC)C1c1cccc(N(C)C(=NC#N)NCCCN2CCC(c3ccccc3)CC2)c1,85 to 90
24,CCNC(=O)N(NC(=O)c1cccc(Cl)c1)C(C)(C)C,67 to 68
25,Cc1nc(Cl)c2cc3c(cc2n1)OCCO3,168 to 170
